Assay results taken from paper PMC10819430, “Binding Affinity and Mechanism of Six PFAS with Human Serum Albumin: Insights from Multi-Spectroscopy, DFT and Molecular Dynamics Approaches” (Toxics, 2024).
Like-named read-outs stand apart in the source and are kept apart here.

Assays:
HSA [1] = target: T1, HSA (Homo sapiens, UniProt P02768); assay: Competitive probe experiment (warfarin, ibuprofen, lidocaine); assay type: binding
T1 construct: HSA (≥96%) and six PFAS were all purchased from Aladdin Chemicals (Shanghai, China); purchased Aladdin Chemicals (Shanghai, China)
Source text: Competitive probe experiments are commonly used to identify specific binding sites in the structure of proteins. Three probe molecules known to bind to distinct binding sites on HSA were selected: warfarin (subdomain IIA), ibuprofen (subdomain IIIA), and lidocaine (subdomain IIB). These probe molecules would compete with PFAS for the same protein sites when binding with HSA. The potential binding sites can be inferred by monitoring and comparing changes in fluorescence intensity when probe molecules are present.

HSA [2] = target: T1, HSA; assay: 3D-EEM fluorescence spectra of HSA–PFAS; details: HSA 1 × 10^−6, PFAS 1.8 × 10^−5 mol·L^−1
Experimental: The 3D-EEM spectra were recorded using specific scanning parameters at the scanning rate of 2400 nm·min^−1, an […] with 5 nm increments, and an emission of 280–550 nm with 2 nm increments. The concentrations of PFAS and HSA were set at 18 × 10^−6 mol·L^−1 and 1 × 10^−6 mol·L^−1, respectively.

[3] = human body, cited from earlier work
[4] = target: T2, Human Serum Albumin (HSA) (Homo sapiens, UniProt P02768); assay: Fluorescence quenching of HSA by PFAS (Stern–Volmer, double logarithmic and Van't Hoff analysis); assay type: binding
T2 construct: HSA (≥96%) and six PFAS were all purchased from Aladdin Chemicals (Shanghai, China); purchased Aladdin Chemicals (Shanghai, China)
Experimental: Fluorescence quenching experiments greatly benefit studies on the interactions between ligands and proteins. Initially, 3 mL of HSA stock solution was put into a 10 mm square quartz cuvette. Following that, PFAS stock solution was gradually added to achieve various final concentrations, namely 0, 3, 6, 9, 12, 15, 18 × 10^−6 mol·L^−1. By incrementally increasing the molar ratio of PFAS vs. HSA up to 18, their binding characteristics can be better investigated.
A thermostat (TR-01A, Bishui Corp, Beijing, China) was used to precisely control the solution temperature, which was set at 298, 304, and 310 K. This device includes a temperature controller and a metal heating cuvette module in conjunction with a fluorometer. This thermostat has a temperature range of 20–60 °C (293–333 K) and an accuracy of 0.1 °C Celsius. This step is critical for keeping the experimental conditions stable. Following that, the samples were fluorescence-scanned with a fluorometer (Cary Eclipse, Agilent, CA, USA). The excitation wavelength was set at 275 nm to efficiently stimulate tryptophan (Trp) and tyrosine (Tyr) residues. Additional test parameters include an emission of 275–500 nm, scanning rate of 1200 nm/min and PTV voltage of 700 v. Fluorescence quenching experiments were repeated three times, and the average values were taken for further calculation.
Fluorescence internal filtration (IFE) refers to the phenomenon where the fluorescence intensity decreases during fluorescence measurement due to the absorption of excitation or emission light by sample components (small molecules or proteins) in solution [19, 20]. This phenomenon is more obvious in the samples with a high concentration of adsorbent. A fluorescence correction formula was used in this study to correct the IFE effect on the data, as follows: Fcorr=Fobs×10^Aex+Aem/2 where Fcorr and Fobs are corrected and observed fluorescence emission intensities, respectively, Aex and Aem are UV-vis absorbances at the excitation and emission wavelengths.
The quenching constant can be calculated using the Stern–Volmer Equation (3). The results are shown in Table 2 and Figure 1: F0/F=1+Kqτ0=1+KsvQ where F0 and F refer to HSA fluorescence intensities without and with the quencher (PFAS solution); Kq is the biomacromolecule’s quenching rate constant; τ0 is the average fluorescence lifetime of the fluorescent molecule when the quencher PFAS is absent, usually taken as 10^−8 s; [Q] is the PFAS concentration; Ksv is the Stern–Volmer quenching constant; F0/F is the vertical axis; the Stern–Volmer curves of this system are 298, 304, and 310 K.
The double logarithmic formula can be used to calculate the binding constants and binding site numbers of HSA–PFAS complexes: logF0−F/F=logKb+nlogQ where F0 and F are parameters representing the initial fluorescence intensity and the fluorescence intensity after adding PFAS, respectively. The binding characteristics are represented by the binding constant, Kb, and the number of binding sites, n. The slope of the straight line is the number of binding sites, n, and the binding constant Kb is obtained from the exponent of the straight line’s intercept using the double logarithmic graph. Figure A2 and Table 2 show the calculation results.
The enthalpy change (∆H), entropy change (∆S), and free energy change (∆G) calculated from the Van’t Hoff equation [50] can be used to determine the type of interaction. lnKb=−ΔH/RT+ΔS/R ΔG=ΔH−TΔS=−RTlnKb where R represents the ideal gas constant (8.314 J·mol^−1·K^−1).

HSA [5] = target: T1, HSA; assay: Circular dichroism (CD) spectrum, secondary structure of HSA; details: HSA:PFAS 1:18, 298 K
Source text: CD measurements (190–260 nm) were taken before and after the addition of PFAS to HSA using a J-815 CD spectrometer equipped with a PMT detector (JASCO, Tokyo, Japan). The protein concentration was set at 1 × 10^−6 mol/L, with a fixed HSA-to-PFAS concentration ratio of 1:18. The scanning rate was set to 100 nm/min with 0.5 nm increments, and the photometric mode of HT. Each sample was scanned three times. The blank buffer control was automatically subtracted during the scanning process. All tests were carried out at 298 K. The CONTIN analysis method from the DichroWeb was employed to determine the contents of the protein’s secondary structure.

T2 sequence (P02768 25-609): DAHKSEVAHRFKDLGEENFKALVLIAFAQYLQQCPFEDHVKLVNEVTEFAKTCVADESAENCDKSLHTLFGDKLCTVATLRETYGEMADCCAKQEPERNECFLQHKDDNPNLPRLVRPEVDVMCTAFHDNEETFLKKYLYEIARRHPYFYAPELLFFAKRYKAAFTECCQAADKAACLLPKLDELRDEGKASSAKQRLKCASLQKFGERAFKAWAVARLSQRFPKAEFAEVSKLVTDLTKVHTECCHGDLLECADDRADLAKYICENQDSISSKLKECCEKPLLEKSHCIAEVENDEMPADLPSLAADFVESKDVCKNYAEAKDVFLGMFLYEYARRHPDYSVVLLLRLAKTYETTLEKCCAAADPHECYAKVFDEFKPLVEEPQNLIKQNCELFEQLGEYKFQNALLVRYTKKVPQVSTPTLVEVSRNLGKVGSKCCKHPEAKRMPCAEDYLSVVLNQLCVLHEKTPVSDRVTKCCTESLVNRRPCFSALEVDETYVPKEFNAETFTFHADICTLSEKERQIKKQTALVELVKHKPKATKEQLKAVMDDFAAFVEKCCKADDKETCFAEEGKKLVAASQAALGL
T1 sequence (P02768 25-609): as above

Structure (SMILES): O=C(O)C(F)(F)C(F)(F)C(F)(F)C(F)(F)C(F)(F)C(F)(F)C(F)(F)F [PFOA, Perfluorooctanoic Acid]
- φ (rate of decrease in Kb) (HSA [1]; lidocaine probe): 8.1%
- φ (rate of decrease in Kb) (HSA [1]; warfarin probe): 96.1%
- 3D-EEM Peak A Position λex/λem (HSA [2]): 280/336
- 3D-EEM Peak B Position λex/λem (HSA [2]): 230/327
- 3D-EEM Peak A Intensity F (HSA [2]; HSA alone 673.66): 476.59 a.u.
- 3D-EEM Peak B Intensity F (HSA [2]; HSA alone 996.906): 812.58 a.u.
- average half-life ([3]; study on 19 PFAS): approximately 2.47 years
- average half-life [3]: 3.8 years
- fluorescence quenching mechanism [4]: mixed quenching
- Kq (quenching rate constant) ([4]; 298 K): 1.39e+12 L/mol/s
- quenching of HSA fluorescence intensity ([4]; PFAS 1.8 × 10^−5 mol·L^−1, HSA 1 × 10^−6 mol·L^−1, 298 K): 20.1%
- KSV (Stern–Volmer quenching constant) ([4]; T = 298 K): 1.39 ± 0.07 × 10^4 L·mol^−1
- n (number of binding sites) ([4]; T = 298 K): 1.26 ± 0.04
- ΔG ([4]; T = 298 K): -7.302 kcal/mol
- Kq (quenching rate constant) ([4]; T = 298 K, τ0 taken as 10^−8 s): 1.39 ± 0.07 × 10^12 L·mol^−1·s^−1
- KSV (Stern–Volmer quenching constant) ([4]; T = 304 K): 1.46 ± 0.09 × 10^4 L·mol^−1
- n (number of binding sites) ([4]; T = 304 K): 1.31 ± 0.02
- ΔG ([4]; T = 304 K): -7.851 kcal/mol
- Kq (quenching rate constant) ([4]; T = 304 K, τ0 taken as 10^−8 s): 1.46 ± 0.09 × 10^12 L·mol^−1·s^−1
- KSV (Stern–Volmer quenching constant) ([4]; T = 310 K): 1.47 ± 0.11 × 10^4 L·mol^−1
- n (number of binding sites) ([4]; T = 310 K): 1.47 ± 0.03
- ΔG ([4]; T = 310 K): -9.003 kcal/mol
- Kq (quenching rate constant) ([4]; T = 310 K, τ0 taken as 10^−8 s): 1.47 ± 0.11 × 10^12 L·mol^−1·s^−1
- ΔH ([4]; Van't Hoff, 298–310 K): 35.057 ± 1.53 kcal/mol
- ΔS ([4]; Van't Hoff, 298–310 K): 593.3 ± 22.7 J·mol^−1·K^−1
- HSA fluorescence peak position after PFAS addition (blue shift from 337 nm) ([4]; as the concentration of PFAS increases): 320 nm
- affinity for HSA ([4]; fluorescence quenching experiments): high affinity
- main interaction force from thermodynamic analysis ([4]; signs of ΔH and ΔS): hydrophobic interactions
- HSA secondary structure: β-Sheet (HSA [5]; HSA alone 4.9): 6.4%
- HSA secondary structure: β-Turn (HSA [5]; HSA alone 16.9): 15.8%
- HSA secondary structure: Random Coil (HSA [5]; HSA alone 36.7): 40.5%
- HSA secondary structure: α-Helix (HSA [5]; HSA alone 41.6): 37.2%
